Source: patent US20200187499A1, “SUBSTITUTED BENZYL-4-AMINOPICOLINIC ESTERS AND PYRIMIDINO-4-CARBOXYLIC ESTERS, METHODS FOR THE PRODUCTION THEREOF, AND USE THEREOF AS HERBICIDES AND PLANT GROWTH REGULATORS” (Bayer CropScience Aktiengesellschaft, priority 2017, published 2020)

Legend:
Format in all cases: in vivo
ECHCG = assay: Pre-emergence herbicidal action; settings: Table 4, pre-emergence (PE), 320 g/ha, scored after 3 weeks
Description: (§1) Seeds of monocotyledonous and dicotyledonous weed plants and crop plants are laid out in sandy loam soil in wood-fiber pots and covered with soil. The compounds of the invention, formulated in the form of wettable powders (WP) or as emulsion concentrates (EC), are then applied to the surface of the covering soil in the form of an aqueous suspension or emulsion at a water application rate equating to 600 to 800 I/ha, with addition of 0.2% wetting agent. After the treatment, the pots are placed in a greenhouse and kept under good growth conditions for the trial plants. The damage to the test plants is scored visually after a test period of 3 weeks by comparison with untreated controls (herbicidal activity in percent (%): 100% activity=the plants have died, 0% activity=like control plants).
(§2) At the same time, inventive compounds leave Gramineae crops such as barley, wheat, rye, millet/sorghum, corn or rice virtually undamaged when applied pre-emergence, even at high active ingredient dosages. In addition, some substances are also harmless to dicotyledonous crops such as soya, cotton, oilseed rape, sugar beet or potatoes. […] The tables below illustrate, in an exemplary manner, the pre-emergence herbicidal action of the compounds according to the invention, the herbicidal activity being stated in percent.

AMARE [1] = assay: Pre-emergence herbicidal action; settings: Table 4, pre-emergence (PE), 320 g/ha, scored after 3 weeks
Description: as §1, §2

SETVI = assay: Post-emergence herbicidal action; settings: Table 6, post-emergence (PO), 320 g/ha, assessed after about 3 weeks
Procedure: (§3) Seeds of monocotyledonous and dicotyledonous weed and crop plants are laid out in sandy loam soil in wood-fiber pots, covered with soil and cultivated in a greenhouse under good growth conditions. 2 to 3 weeks after sowing, the test plants are treated at the one-leaf stage. The compounds of the invention, formulated in the form of wettable powders (WP) or as emulsion concentrates (EC), are then sprayed onto the green parts of the plants in the form of an aqueous suspension or emulsion at a water application rate equating to 600 to 800 l/ha, with addition of 0.2% wetting agent. After the test plants have been left to stand in the greenhouse under optimal growth conditions for about 3 weeks, the action of the preparations is assessed visually in comparison to untreated controls (herbicidal action in percent (%): 100% activity=the plants have died, 0% activity=like control plants). […] At the same time, inventive compounds leave Gramineae crops such as barley, wheat, rye, millet/sorghum, corn or rice virtually undamaged when applied post-emergence, even at high active ingredient dosages. In addition, some substances are also harmless to dicotyledonous crops such as soya, cotton, oilseed rape, sugar beet or potatoes. Some of the compounds according to the invention have high selectivity and are therefore suitable for controlling unwanted vegetation in agricultural crops by the post-emergence method. The tables below illustrate, in an exemplary manner, the post-emergence herbicidal action of the compounds according to the invention, the herbicidal activity being stated in percent.

STEME = assay: Post-emergence herbicidal action; settings: Table 6, post-emergence (PO), 320 g/ha, assessed after about 3 weeks
Procedure: as §3

ABUTH = assay: Post-emergence herbicidal action; settings: 320 g/ha, assessed after about 3 weeks
Procedure: as §3

AMARE [2] = assay: Post-emergence herbicidal action; settings: 320 g/ha, assessed after about 3 weeks
Procedure: as §3

Row | Structure (SMILES) | Herbicidal action against ECHCG (ECHCG) | Herbicidal action against AMARE (AMARE [1]) | Herbicidal action against SETVI (SETVI) | Herbicidal action against STEME (STEME) | Herbicidal action against ABUTH (ABUTH; Table 6, post-emergence (PO)) | Herbicidal action against AMARE (AMARE [2]; Table 6, post-emergence (PO)) | Herbicidal action against ABUTH (ABUTH; Table 9, post-emergence (PO)) | Herbicidal action against AMARE (AMARE [2]; Table 9, post-emergence (PO))
1 | Nc1cc(-c2ccc3ccoc3c2)nc(C(=O)OCc2ccc(F)c(F)c2F)c1Cl [Example I-23] | 90% | 100% | 90% | 100% | 90% | 100% |  | 
2 | Nc1cc(-c2ccc3occc3c2)nc(C(=O)OCc2ccc(F)cc2F)c1Cl [Example I-24] | 60% | 90% | 80% | 80% | 100% | 100% |  | 
3 | Nc1cc(-c2ccc3ccoc3c2)nc(C(=O)OCc2ccc(F)cc2)c1Cl [Example I-26] | 70% | 100% | 100% | 100% | 100% | 100% |  | 
4 | Nc1cc(-c2ccc3ccoc3c2)nc(C(=O)OCc2cc(F)c(F)cc2F)c1Cl [Example I-27] | 60% | 100% | 80% | 100% | 90% | 100% |  | 
5 | COc1c(F)ccc(COC(=O)c2nc(-c3ccc4ccoc4c3)cc(N)c2Cl)c1F [Example I-28] | 90% | 100% | 100% | 100% | 100% | 100% |  | 
6 | Nc1cc(-c2ccc3ccoc3c2F)nc(C(=O)OCc2cccc(Cl)c2)c1Cl [Example I-33] | 20% | 90% | 80% | 90% | 90% | 100% |  | 
7 | Nc1cc(-c2ccc3occc3c2)nc(C(=O)OCc2ccccc2C(F)(F)F)c1Cl [Example I-37] | 90% | 100% | 90% | 100% | 100% | 100% |  | 
8 | Nc1cc(-c2ccc3occc3c2)nc(C(=O)OCc2cccc(Cl)c2)c1Cl [Example I-38] |  |  | 90% | 100% | 100% | 100% |  | 
9 | Nc1cc(-c2ccc3ncsc3c2)nc(C(=O)OCc2ccc(F)cc2F)c1Cl [Example I-39] |  |  | 100% | 70% | 100% | 90% |  | 
10 | Nc1cc(-c2ccc3ccsc3c2)nc(C(=O)OCc2ccccc2Cl)c1Cl [Example I-44] | 60% | 90% | 60% | 100% | 100% | 100% |  | 
11 | Nc1c(F)c(-c2ccc3ccsc3c2)nc(C(=O)OCc2ccc(Cl)cc2)c1Cl [Example I-45] | 40% | 100% | 30% | 90% | 90% | 90% |  | 
12 | Nc1cc(-c2ccc3ccsc3c2)nc(C(=O)OCc2ccc(F)c(F)c2F)c1Cl [Example I-46] | 60% | 100% |  |  |  |  | 90% | 100%
13 | Nc1c(F)c(-c2ccc3occc3c2)nc(C(=O)OCc2ccc(F)cc2F)c1Cl [Example I-48] | 10% | 90% | 30% | 80% | 90% | 90% |  | 
14 | Nc1cc(-c2ccc3ccoc3c2F)nc(C(=O)OCc2ccc(Cl)cc2)c1Cl [Example I-49] |  |  | 80% | 90% | 90% | 100% |  | 
15 | Nc1c(F)c(-c2ccc3ccoc3c2)nc(C(=O)OCc2ccc(Cl)cc2Cl)c1Cl [Example I-51] | 20% | 70% |  |  |  |  | 80% | 90%
16 | Nc1c(F)c(-c2ccc3sccc3c2)nc(C(=O)OCc2ccc(F)cc2F)c1Cl [Example I-56] | 30% | 80% | 80% | 90% | 80% | 90% |  | 
17 | COc1c(Cl)ccc(Cl)c1COC(=O)c1nc(-c2ccc3occc3c2)cc(N)c1Cl [Example I-57] |  |  | 80% | 70% | 90% | 100% |  | 
18 | Nc1c(F)c(-c2cc3ccsc3cc2F)nc(C(=O)OCc2ccc(Cl)cc2)c1Cl [Example I-58] |  |  |  |  |  |  | 90% | 100%
19 | Nc1c(F)c(-c2ccc3sccc3c2)nc(C(=O)OCc2c(F)cc(F)cc2F)c1Cl [Example I-59] | 30% | 80% | 80% | 90% | 90% | 90% |  | 
20 | Nc1cc(-c2ccc3occc3c2)nc(C(=O)OCc2ccccc2[N+](=O)[O-])c1Cl [Example I-62] |  |  |  |  |  |  | 100% | 40%
21 | Nc1c(F)c(-c2ccc3occc3c2)nc(C(=O)OCc2ccc(Cl)cc2Cl)c1Cl [Example I-63] |  |  |  |  |  |  | 80% | 80%
22 | Nc1c(F)c(-c2ccc3ncsc3c2)nc(C(=O)OCc2ccc(Cl)cc2)c1Cl [Example I-64] |  |  | 90% | 40% | 90% | 90% |  | 
23 | Nc1c(F)c(-c2cc3ccoc3cc2F)nc(C(=O)OCc2ccc(Cl)cc2)c1Cl [Example I-68] |  |  |  |  |  |  | 80% | 80%
24 | Nc1c(F)c(-c2cc3ccoc3cc2F)nc(C(=O)OCc2ccc(F)cc2)c1Cl [Example I-71] |  |  |  |  |  |  | 40% | 80%
